According to patent US10508120B2, “TYK2 inhibitors and uses thereof” (Nimbus Lakshmi, Inc., priority 2017, dated 2019):
pKd: −log10 of the molar value.

Target: human TYK2 (JH2domain-pseudokinase) (Homo sapiens (Human), UniProt P29597)
Assay: TYK2 JH2 Domain Binding Assay (KINOMEscan)
Experimental: Binding constants for compounds of the present invention against the JH2 domain were determined by the following protocol for a KINOMEscan® assay (DiscoveRx). A fusion protein of a partial length construct of human TYK2 (JH2domain-pseudokinase) (amino acids G556 to D888 based on reference sequence NP_003322.3) and the DNA binding domain of NFkB was expressed in transiently transfected HEK293 cells. From these HEK 293 cells, extracts were prepared in M-PER extraction buffer (Pierce) in the presence of Protease Inhibitor Cocktail Complete (Roche) and Phosphatase Inhibitor Cocktail Set II (Merck) per manufacturers' instructions. The TYK2 (JH2domain-pseudokinase) fusion protein was labeled with a chimeric double-stranded DNA tag containing the NFkB binding site (5′-[…]-3′) fused to an amplicon for qPCR readout, which was added directly to the expression extract (the final concentration of DNA-tag in the binding reaction is 0.1 nM).
The liganded beads were blocked with excess biotin and washed with blocking buffer (SeaBlock (Pierce), 1% BSA, 0.05% Tween 20, 1 mM DTT) to remove unbound ligand and to reduce nonspecific binding.
Extracts were used directly in binding assays without any enzyme purification steps at a ≥10,000-fold overall stock dilution (final DNA-tagged enzyme concentration <0.1 nM). Extracts were loaded with DNA-tag and diluted into the binding reaction in a two step process. First extracts were diluted 1:100 in 1× binding buffer (PBS/0.05% Tween 20/10 mM DTT/0.1% BSA/2 μg/ml sonicated salmon sperm DNA) containing 10 nM DNA-tag. This dilution was allowed to equilibrate at room temperature for 15 minutes and then subsequently diluted 1:100 in 1× binding buffer. […] Kds were determined using an 11-point 3-fold compound dilution series with three DMSO control points. […] The compounds were then diluted directly into the assays such that the final concentration of DMSO was 0.9%. All reactions performed in polypropylene 384-well plates. Each was a final volume of 0.02 mL. Assays were incubated with shaking for 1 hour at room temperature. Then the beads were pelleted and washed with wash buffer (1×PBS, 0.05% Tween 20) to remove displaced kinase and test compound. […] The qPCR protocol consisted of a 10 minute hot start at 95° C., followed by 35 cycles of 95° C. for 15 seconds, 60° C. for 1 minute.
Kds were determined using an 11-point 3-fold compound dilution series with three DMSO control points. […] The compounds were then diluted directly into the assays such that the final concentration of DMSO was 0.9%. The Kds were determined using a compound top concentration of 30,000 nM. Kd measurements were performed in duplicate.
Binding constants (Kds) were calculated with a standard dose-response curve using the Hill equation: […]
The Hill Slope was set to −1.

human TYK2 (JH2domain-pseudokinase), sequence (P29597 556-888): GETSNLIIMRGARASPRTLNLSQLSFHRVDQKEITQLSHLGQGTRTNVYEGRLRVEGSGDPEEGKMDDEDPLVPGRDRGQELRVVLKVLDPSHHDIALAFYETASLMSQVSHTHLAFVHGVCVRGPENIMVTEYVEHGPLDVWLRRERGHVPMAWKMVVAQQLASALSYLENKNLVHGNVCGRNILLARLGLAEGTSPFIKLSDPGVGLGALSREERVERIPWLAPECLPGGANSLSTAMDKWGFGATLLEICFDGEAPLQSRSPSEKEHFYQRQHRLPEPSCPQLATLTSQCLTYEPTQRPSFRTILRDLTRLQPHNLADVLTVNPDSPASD

Structure (SMILES) | pKd
CNc1cc(Nc2cccn(C(C)C)c2=O)nc2c(C(=O)N[C@H]3CCC[C@]3(C)O)cnn12 [I-1241] | > 9.70
CNc1cc(Nc2cccn([C@H]3CCC[C@@H](C#N)C3)c2=O)nc2c(C(=O)N[C@@H]3C[C@@H]3F)cnn12 [I-1220] | 9.00 to 9.70
CNc1cc(Nc2cccn(C(C)C)c2=O)nc2c(C(=O)N[C@@H]3CCCC[C@@]3(C)O)cnn12 [I-1276] | 9.00 to 9.70
CNc1cc(Nc2cccn([C@@H]3CC[C@H]3O)c2=O)nc2c(C(=O)N[C@@H]3CCC[C@@H](OC)C3)cnn12 [I-1253] | < 8.00
CNc1cc(Nc2cccn([C@H]3C[C@@H]3OC)c2=O)nc2c(C(=O)NC3CC3)cnn12 [I-1228] | 8.00 to 9.00
CNc1cc(Nc2cccn([C@@H]3C[C@H]3F)c2=O)nc2c(C(=O)N[C@H]3CC[C@@H]3OC)cnn12 [I-1205] | > 9.70
CNc1cc(Nc2cccnc2OC)nc2c(C(=O)N[C@@H]3COC[C@@H]3O)cnn12 [I-519] | > 9.70
CNc1cc(Nc2cccn([C@H]3CCC[C@@H](O)C3)c2=O)nc2c(C(=O)N[C@H]3CC[C@@H]3OC)cnn12 [I-1193] | > 9.70
CNc1cc(Nc2cccn(C(C)C)c2=O)nc2c(C(=O)N[C@@H]3CCC[C@@]3(C)O)cnn12 [I-1240] | > 9.70
CNc1cc(Nc2cccn([C@H]3C[C@@H]3F)c2=O)nc2c(C(=O)N[C@H]3CC[C@@H]3OC)cnn12 [I-1204] | > 9.70
CNc1cc(-c2cn(C3CC3)c3ncccc23)nc2c(C(=O)N[C@H]3CCC[C@]3(C)O)cnn12 [I-1281] | 9.00 to 9.70
CNc1cc(Nc2cccn(C3CCOCC3)c2=O)nc2c(C(=O)N[C@H]3CCC[C@](C)(OC)C3)cnn12 [I-1200] | 9.00 to 9.70
CNc1cc(Nc2cccn([C@@H]3CCC[C@@H]3OC)c2=O)nc2c(C(=O)NC3CC3)cnn12 [I-524] | 8.00 to 9.00
NC(=O)c1cnn2c(N)cc(Nc3cc(Cl)cnc3O[C@@H]3CCOC3)nc12 [I-85] | 8.00 to 9.00
CNc1cc(Nc2cccn([C@H]3C[C@@H]3F)c2=O)nc2c(C(=O)N[C@@H]3CC[C@H]3O)cnn12 [I-1279] | > 9.70
CNc1cc(Nc2cccn(C3CCOCC3)c2=O)nc2c(C(=O)N[C@@H]3CCCC[C@@]3(C)O)cnn12 [I-1196] | 9.00 to 9.70
CNc1cc(Nc2cccn([C@H]3C[C@@H]3OC)c2=O)nc2c(C(=O)N[C@H]3CC[C@@H]3OC)cnn12 [I-1187] | > 9.70
CNc1cc(-c2cn([C@@H]3CCCOC3)c3ncccc23)nc2c(C(N)=O)cnn12 [I-1255] | 9.00 to 9.70

Structure (SMILES) | pKd
CNc1cc(Nc2cc(C(F)(F)F)cn(-c3cnn(C)c3)c2=O)nc2c(C(=O)NC3CC3)cnn12 [I-523] | 9.00 to 9.70
CNc1cc(Nc2cccn(-c3cccnc3)c2=O)nc2c(C(=O)N[C@H]3CCC[C@H](OC)C3)cnn12 [I-1217] | > 9.70
CNc1cc(Nc2cccn(C(C)C)c2=O)nc2c(C(=O)N[C@H]3CCC[C@](C)(O)C3)cnn12 [I-1242] | > 9.70
CNc1cc(Nc2cccn([C@H]3C[C@@H]3OC)c2=O)nc2c(C(=O)N[C@@H]3C[C@@H]3F)cnn12 [I-1272] | 8.00 to 9.00
CNc1cc(Nc2cccn([C@H]3C[C@@H]3OC)c2=O)nc2c(C(=O)NC3CC3)cnn12 [I-1271] | > 9.70
CNc1cc(Nc2cccn(C(C)C)c2=O)nc2c(C(=O)N[C@@H]3CC[C@H](O)C3)cnn12 [I-1266] | > 9.70
CNc1cc(Nc2cc(F)cn(C3CCCOC3)c2=O)nc2c(C(=O)N[C@@H]3C[C@@H]3F)cnn12 (stereo partly shown) [I-521] | > 9.70
CNc1cc(Nc2cccn(-c3nc(C)co3)c2=O)nc2c(C(=O)NC(C)(C)C#N)cnn12 [I-1260] | 9.00 to 9.70
CNc1cc(Nc2cccnc2OC2CC2)nc2c(C(=O)N[C@H]3COC[C@H]3O)cnn12 [I-520] | 9.00 to 9.70
CNc1cc(Nc2cccn(C3CCOCC3)c2=O)nc2c(C(=O)N[C@@H]3CCC[C@@](C)(OC)C3)cnn12 [I-1201] | 9.00 to 9.70
CNc1cc(Nc2cccn(C3CCOCC3)c2=O)nc2c(C(=O)N[C@@H]3CC[C@@H](OC)C3)cnn12 [I-1195] | 8.00 to 9.00
CNc1cc(Nc2cccn([C@@H]3C[C@H]3F)c2=O)nc2c(C(=O)N[C@@H]3CC[C@H](O)C3)cnn12 [I-1203] | > 9.70
CNc1cc(Nc2cccn(C3CC(F)(F)C3)c2=O)nc2c(C(=O)N[C@@H]3CC[C@@H](O)C3)cnn12 [I-1211] | > 9.70
CNc1cc(Nc2cccn([C@H]3CCCN(CCF)C3)c2=O)nc2c(C(=O)N[C@@H]3CC[C@H]3OC)cnn12 [I-1216] | 9.00 to 9.70
CNc1cc(Nc2cc(C)nc(C)c2)nc2c(C(N)=O)cnn12 [I-13] | 8.00 to 9.00
CNc1cc(Nc2cccn(C3CC(F)(F)C3)c2=O)nc2c(C(=O)N[C@@H]3CC[C@H]3O)cnn12 [I-1198] | > 9.70
CNc1cc(Nc2cccn([C@H]3CCC[C@@H](O)C3)c2=O)nc2c(C(=O)N[C@@H]3CC[C@H]3OC)cnn12 [I-1192] | > 9.70

Next, values leading:

pKd | Structure (SMILES)
8.00 to 9.00 | CNc1cc(-c2cn([C@H]3CCCOC3)c3ncccc23)nc2c(C(=O)N[C@@H]3CC[C@H]3OC)cnn12 [I-1282]
8.00 to 9.00 | CNc1cc(Nc2cccn(C3CCCCC3)c2=O)nc2c(C(=O)N[C@H]3COC[C@H]3O)cnn12 [I-1349]
> 9.70 | CNc1cc(-c2cn(C3CCOCC3)c3ncccc23)nc2c(C(=O)N[C@@H]3COC[C@@H]3O)cnn12 [I-1307]
9.00 to 9.70 | CNc1cc(Nc2cccn(C3CC(F)(F)C3)c2=O)nc2c(C(=O)N[C@@H]3CC[C@@H]3O)cnn12 [I-1305]
9.00 to 9.70 | CNc1cc(Nc2cccn([C@@H]3C[C@H]3F)c2=O)nc2c(C(=O)N[C@@H]3CC[C@@H]3O)cnn12 [I-1403]
8.00 to 9.00 | CNc1cc(Nc2cccn(C3CC(F)(F)C3)c2=O)nc2c(C(=O)N[C@H]3CC[C@H]3O)cnn12 [I-1306]
9.00 to 9.70 | CNc1cc(Nc2cccn([C@@H]3CCCC[C@@H]3O)c2=O)nc2c(C(=O)N[C@H]3CC[C@@H]3OC)cnn12 [I-1338]
8.00 to 9.00 | CNc1cc(-c2cn([C@H]3CCC[C@@H]3OC)c3ncccc23)nc2c(C(=O)NC3CCC3O)cnn12 (mixture of isomers) [I-1340, N-(2-hydroxycyclobutyl)-5-(1-((1S,2S)-2-methoxycyclopentyl)-1H-pyrrolo[2,3-b]pyridin-3-yl)-7-(methylamino)pyrazolo[1,5-a]pyrimidine-3-carboxamide]
8.00 to 9.00 | CNc1cc(Nc2cccn([C@@H]3CCCN(CCF)C3)c2=O)nc2c(C(=O)N[C@@H]3CC[C@H]3OC)cnn12 [I-1383]
9.00 to 9.70 | CNc1cc(-c2cn(C(C)C)c3ncccc23)nc2c(C(=O)N[C@H]3CC[C@@]3(C)O)cnn12 [I-1409]
> 9.70 | CNc1cc(Nc2cccn([C@@H]3CCC[C@@H]3O)c2=O)nc2c(C(=O)N[C@@H]3CC[C@H]3OC)cnn12 [I-1393]
9.00 to 9.70 | CNc1cc(Nc2cccn([C@H]3CCC[C@@H](C#N)C3)c2=O)nc2c(C(=O)NC3CC3)cnn12 [I-1361]
> 9.70 | CNc1cc(Nc2cccn([C@H]3CC[C@H]3O)c2=O)nc2c(C(=O)N[C@H]3CC[C@@H]3OC)cnn12 [I-1345]
> 9.70 | CNc1cc(Nc2cccn3cnnc23)nc2c(C(=O)N[C@@H]3CC[C@H]3OC)cnn12 [I-1342]
9.00 to 9.70 | CNc1cc(Nc2cccn([C@H]3CC[C@@H]3O)c2=O)nc2c(C(=O)N[C@@H]3CC[C@H]3OC)cnn12 [I-1384]
> 9.70 | CNc1cc(Nc2cccn([C@@H]3CCC[C@@H](OC)C3)c2=O)nc2c(C(=O)N[C@@H]3CC[C@H]3OC)cnn12 [I-1330]
9.00 to 9.70 | CNc1cc(-c2cn(C(C)C)c3ncc(F)cc23)nc2c(C(=O)N[C@@H]3CC[C@H]3OC)cnn12 [I-1392]
9.00 to 9.70 | CNc1cc(Nc2cccn([C@H]3CC[C@H]3O)c2=O)nc2c(C(=O)N[C@@H]3CC[C@H]3OC)cnn12 [I-1344]
> 9.70 | CNc1cc(Nc2cccn(-c3cccnc3)c2=O)nc2c(C(=O)N[C@@H]3CCC[C@@H](OC)C3)cnn12 [I-1288]
8.00 to 9.00 | CNc1cc(-c2cn(C3CCOCC3)c3ncccc23)nc2c(C(=O)N[C@H]3CCC[C@]3(C)O)cnn12 [I-1336]
9.00 to 9.70 | CNc1cc(Nc2cccn(-c3cccc(F)c3)c2=O)nc2c(C(=O)N[C@H]3COC[C@H]3O)cnn12 [I-1304]
9.00 to 9.70 | CNc1cc(Nc2cccn([C@H]3CCCOC3)c2=O)nc2c(C(=O)NC3CC3OC)cnn12 (mixture of isomers) [I-1415, N-(2-methoxycyclopropyl)-7-(methylamino)-5-((2-oxo-1-((S)-tetrahydro-2H-pyran-3-yl)-1,2-dihydropyridin-3-yl)amino)pyrazolo[1,5-a]pyrimidine-3-carboxamide]
8.00 to 9.00 | CNc1cc(Nc2cccn(-c3ccc(C)nc3)c2=O)nc2c(C(=O)N[C@H]3CCC[C@H](OC)C3)cnn12 [I-1289]
